Source: patent publication US20100303904A1, “TABLET WITH REMEDIAL COMPOSITION AND METHODS FOR TREATING MEDICAL DISORDERS AND AILMENTS” (BIO-PRO MEDICAL LTD., priority 2007, published 2010)

How the values were obtained:
[1] = system: Aberrant Crypt Foci (ACF); assay: DMH-induced CRC model of aberrant crypt foci (ACF) in rats (Example 1); format: in vivo, Wistar rats; conditions: DMH 30 mg/kg rats; oral gavage; colons stained 60 days after DMH; Coltect 150 mg/kg, 5-ASA 50 mg/kg
Protocol: Age- and sex-matched 23 Wistar rats were purchased from the animal facilities at the Tel-Aviv Sourasky Medical Center (TASMC). The rats were injected subcutaneously twice a week for two weeks with 0.3 ml of 30 mg/kg body weight DMH (Sigma-Aldrich, Israel) dissolved in PBS, and groups (n=5) were randomly divided as follows (Table 1): The Coltect mixture was dissolved in a solution of DMSO (50%) and tap water. The solution was administered to the rats by oral gavage for five days, starting at the first day of DMH injections. During the experiment, the rats were weighed twice a week. Sixty days after DMH injections the rats were sacrificed by CO2 flow. The colons were removed and flushed with isotonic saline solution, opened longitudinally, cut into three parts of equal length, and labeled as proximal, middle and distal segments. The colons were laid open on a Wattman paper and fixed flat in 4% buffered formalin solution. The ACF were visualized and counted by using methylene blue staining (0.2% solution) and photographed. […] The number and multiplicity of ACF for each colonic segment were evaluated and recorded. The number and multiplicity of ACF were recorded separately for each segment. To determine multiplicity of ACF, the number of crypts in each focus was defined and recorded.

[2] = DSS-induced IBD model in mice (Example 2); format: in vivo, C57BL mice; conditions: first experiment (FIG. 4A); DSS 2.5%; Coltect 150 mg/kg, 5-ASA 50 mg/kg oral gavage 7 days
Protocol: Age- and sex-matched C57BL 5-weeks old female mice were obtained from Harlan Laboratories, Israel. […] Four mice received saline (2.5%) and served as the negative control group. The mice were randomly divided into groups (n=8) and received the corresponding treatment starting from the first day for 7 days (Table 3). The treatments were given in doses of 0.5 ml of tap water with 2% DMSO by oral gavage. The following doses were used: Coltect-150 mg/kg body weight; 5-ASA-50 mg/kg body weight. All mice were sacrificed 7 days after the enema, their spleen and colon were removed, fixed in 10% formalin for histological evaluation and parts were frozen at […] for later examination. For macroscopic injury evaluation a revised colonic damage scoring system was used as described by Morris et al. Thus, the severity of colitis was determined based on the following parameters: • 1. Disease Activity Index (DAI): weight loss, gross bleeding, stool consistency (Table 2)—were daily recorded. • 2. Spleen weight. • 3. Colon length. • 4. Histological score. For histological injury evaluation tissues fixed in 10% formalin, were embedded in paraffin wax and cut. 4 μm sections were histologically stained and evaluated by light microscopy for ulceration and inflammation. [table]

[3] = TNBS-induced IBD model in rats (Example 3); format: in vivo, Wistar rats; conditions: TNBS-induced model (FIG. 6); compared to negative and positive controls
Protocol: One day before the experiment the rats were weighted, marked according to the groups, and fasted for 24 hours (for colon emptying). At the day of the experiment the rats were anesthetized by an intra-peritoneal injection of halothene and colitis was induced by intra-rectal administration of 0.4 ml of a 25 mg/ml TNBS solution dissolved in 50% ethanol using an 8-cm long rubber catheter. Then, 0.4 ml of air was injected and the rats were kept in a Trendelenburg position for 30 sec to ensure that all TNBS solution left the catheter. Three rats received intra-rectal administration of saline and served as the negative control group. Coltect, 5-ASA, or their combination, were delivered by daily gavage of 0.5 ml solution starting from day 0. All rats were sacrificed after 7 days. Their 10-cm distal colon was removed, opened longitudinally along the anti-mesenteric side and was gently washed with ice-cold saline in order to remove all luminal content. Colon wet weight was weighed and the colonic injury was immediately examined under a stereomicroscope and the visible damage was scored, then part of the colons was placed in 10% formalin for histological evaluation and parts were frozen at […] for later evaluation. The induction and severity of colitis were evaluated by measuring: • 1. Daily body weight. • 2. Colon weight. • 3. Macro-Histological score damage.

[4] = system: Aberrant Crypt Foci (ACF); assay: DMH-induced ACF formation, Coltect versus its ingredients (Example 5a); format: in vivo, Wistar rats; conditions: DMH 50 mg/kg rats; daily oral gavage 2 weeks; sacrificed after 2 months (FIG. 10A)
Protocol: In these experiments the concentration of the ingredients used was determined based on their ratio in the Coltect mixture. As used in the above experiments, the Coltect concentration administered to the model animals was 150 mg/kg. Since a ratio of ⅔ Curcumin to ⅓ Green Tea was used in the Coltect mixture, the administered Curcumin concentration was 100 mg/kg and the Green tea concentration was 50 mg/kg. The Curcumin to Selenium ratio in the Coltect mixture was 500 mg Curcumin to 0.1 mg Selenium, therefore, the administered Selenium concentration was 0.02 mg/kg body weight. The final administered concentrations of the Coltect components are presented in Table 6 below: Forty seven age- and sex-matched Wistar rats were obtained from the animal facility at TASMC. The rats were injected subcutaneously twice a week for two weeks with 0.3 ml of 50 mg/kg body weight DMH (Sigma-Aldrich, Israel) dissolved in PBS, and groups were randomly divided as shown in Table 7. The Coltect compound and its components were daily administered simultaneously for 2 weeks by oral gavage. The rats were sacrificed after 2 months. Reference is now made to FIG. 9 presenting Methylene blue ACF staining performed according to the protocol described in the above Example 1, of normal mucosa (A) aberrant crypt foci containing small ACF with 1-3 crypts (B) and large ACF with more than three crypts (C).

[5] = DSS-induced colitis in mice, Coltect versus its components (Example 5b); format: in vivo, C57BL mice
Protocol: In these experiments the concentration of the ingredients used was determined based on their ratio in the Coltect mixture. As used in the above experiments, the Coltect concentration administered to the model animals was 150 mg/kg. Since a ratio of ⅔ Curcumin to ⅓ Green Tea was used in the Coltect mixture, the administered Curcumin concentration was 100 mg/kg and the Green tea concentration was 50 mg/kg. The Curcumin to Selenium ratio in the Coltect mixture was 500 mg Curcumin to 0.1 mg Selenium, therefore, the administered Selenium concentration was 0.02 mg/kg body weight.
Age- and sex-matched C57BL 5-weeks old female mice were obtained from Harlan Laboratories, Israel. After one week of acclimation, the mice (n=52) were treated with 2.5% DSS administered in the drinking water for 5 days ad libitum, followed by two days of tap water. The treatments were given in doses of 0.3 ml of tap water with 2% DMSO by oral gavage. The mice were randomly divided into 8 sub-groups (n=6) and a control group (n=4) treated as described in Table 8.

Row | Structure (SMILES) | Number of crypts in treated colons: 1-3 crypts [1] | Number of crypts in treated colons: >4 crypts [1] | DAI score [2] | Changes in body weight [3] | Reduction in number of ACFs relative to the positive control [4] | DAI score ([5]; DSS 2.5% mice (FIG. 11), oral gavage) | Colon length, in words ([5]; DSS-induced mice, day seven (FIG. 12))
1 | Nc1ccc(O)c(C(=O)O)c1 [5-ASA, 5-aminosalicylic acid] | 28 ± 4.1 | 11.6 ± 3.9 | relatively higher DAI scores | no substantial changes in body weight |  |  | 
2 | C[Se]CC[C@H](N)C(=O)O [Selenium, Selenomethionine] |  |  |  |  | about 30% | 2.33±1.33 | longer colons
